Laboratory results from PubChem BioAssay AID489024 (Sanford-Burnham Center for Chemical Genomics, 2010).
Calls of active or inactive are those of the source.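 The calls were made as follows: active = compounds whose mean EC50, the dose giving half the maximal reporter activation, is at or below a set limit; inactive = the rest.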

Target: CHO-CHOP luciferase reporter, UPR activation, luminescence
Assay: CHOP reporter induction, apoptotic UPR branch – CHO-CHOP cells, luciferase luminescence, confirmation (AID 489024);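 also: compounds added alone to reporter cells with no tunicamycin stress co-treatment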

| Structure (SMILES) | EC50 |
| --- | --- |
| CCC(=O)Nc1ccc(C(=O)Cn2ncc(Cl)c(Cl)c2=O)cc1 | 13.7 µM |
| Cn1c(=O)c2c(SCC(=O)Nc3ccccc3F)nc(-c3ccccc3F)nc2n(C)c1=O | 12.6 µM |
| Cc1cccc(/C=C/C(=O)c2ccc([N+](=O)[O-])o2)c1 | 7.44 µM |
| O=C(Nc1nccs1)c1cccc(N2C(=O)c3cccc4c([N+](=O)[O-])ccc(c34)C2=O)c1 | 11.5 µM |
| CCOC(=O)c1ccc(N2C(=O)C=CC2=O)cc1 | > 80 µM (inactive) |
| Cc1noc2ncnc(Sc3ccc(Cl)cc3)c12 | 7.1 µM |
| Cc1cccc(CSc2cccc3cccnc23)c1 | 7.72 µM |
| CC(C)(C)c1ccc(/C=C(\c2nc3ccccc3[nH]2)S(=O)(=O)c2ccccc2)cc1 | 7.17 µM |
| COc1ccc(/C=N/Nc2cc(C)nc(-n3nc(C)cc3C)n2)c(OC)c1 | 7.32 µM |
| COc1cc([C@H]2c3[nH]c4ccccc4c3C[C@H]3C(=O)N4[C@@H](c5cc(OC)c(OC)c(OC)c5)c5[nH]c6ccccc6c5C[C@H]4C(=O)N23)cc(OC)c1OC | 11.3 µM |
| CCCN(CCC)C(=O)c1cc([N+](=O)[O-])cc2c1-c1ccc([N+](=O)[O-])cc1C2=C(C#N)C#N | 13.3 µM |
| O=C(N/N=C/c1ccccn1)c1cc([N+](=O)[O-])cc([N+](=O)[O-])c1 | inactive |
| O=C1Nc2ccccc2/C1=C\C(=O)c1ccccc1 | 14.2 µM |
| COc1ccc(C(=O)Cn2c(C(=O)/C=C/c3ccccc3)nc3ccccc32)cc1 | 10.1 µM |
| CN(C)C(=S)N=Nc1[nH]c2ccccc2c1O | 6.88 µM |
| Cc1cccc(CS(=O)(=O)c2ncc(Cl)c(C(=O)Nc3ccc(F)cc3)n2)c1 | 9.1 µM |
| Oc1c(C(c2ccccn2)N2CCC(Cc3ccccc3)CC2)cc(Cl)c2cccnc12 (configuration not stated) | inactive |
| O=C(/C=C/c1ccc(O)c(O)c1)OCCc1ccccc1 | 0.89 µM |
| COc1ccc2[nH]cc(C(=O)CCl)c2c1 | > 80 µM (inactive) |
| CCn1c(O)c(C2=c3ccccc3=NC2=O)c2cc(Br)ccc21 | 15.4 µM |
| CC1=C(/C=C/C(C)=C/C=C/C(C)=C/C(=O)Nc2ccc(O)cc2)C(C)(C)CCC1 | 14.3 µM |
| COc1cc(/C=C/C(=O)c2ccc3c(c2)OCCO3)cc(Br)c1OCC(=O)N(C)C | 7 µM |
| COc1cc2nc(=S)n3[nH]c(CCn4nc(C)cc4C)nc3c2cc1OC | 3.93 µM |
| CCOC(=O)c1sc(N(Cc2ccccc2)C(=O)CCl)nc1C | 7.96 µM |
| CS(=O)(=O)c1nc(-c2ccc(Br)cc2)cc(-c2ccccc2)c1C#N | 5.12 µM |
| C=CCN=c1scc(-c2ccco2)n1/N=C/c1ccc(O)c(O)c1O | inactive |

| Structure (SMILES) | EC50 |
| --- | --- |
| O=C(Nc1ccc(NC(=O)c2sc3ccccc3c2Cl)cc1Cl)c1ccco1 | inactive |
| CCOc1ccc(-n2c(C)cc(C(=O)CCl)c2C)cc1 | 6.97 µM |
| CCOc1cc(NC(=O)CCl)c(OCC)cc1NC(=O)CCl | inactive |
| Cc1ccc2nc(-c3ccc(O)c(O)c3)cn2c1 | 3.6 µM |
| O=C1NC(=O)N(c2ccccc2)C(=O)/C1=C\C=C\c1ccccc1 | 4.5 µM |
| COc1ccccc1-c1cc(C(F)(F)F)nc(S(=O)(=O)CCCC(=O)NCc2ccc(F)cc2)n1 | 7.58 µM |
| COc1ccc(C(C[N+](=O)[O-])n2nc(C)cc2C)cc1 (configuration not stated) | 9.15 µM |
| CC(C)c1ccc(N2C(=O)NC(=O)/C(=C\C=C\c3ccco3)C2=O)cc1 | 9.13 µM |
| CN(C(=O)CSc1cc(C(=O)c2nccn2C)c2ccccc2n1)c1ccccc1 | 7.96 µM |
| CC1(C)CC(=O)C(=Cc2cn(-c3ccccc3)nc2-c2ccccc2)C(=O)C1 | inactive |
| COc1ccc(-c2ccc(-c3nc4c(c(=O)[nH]c(=O)n4Cc4ccccc4)n3C)o2)c([N+](=O)[O-])c1 | > 80 µM (inactive) |
| Oc1ccc(/C=N/Nc2cc(N3CCCC3)nc(N3CCCC3)n2)cc1O | 13.2 µM |
| CC(C)c1ccc(N2C(=O)CC(Sc3nc4ccccc4o3)C2=O)cc1 (configuration not stated) | 15.9 µM |
| COc1ccc(C2OC34CCCCC3C(C#N)(C#N)C2(C#N)C(=N)O4)cc1 (configuration not stated) | > 80 µM (inactive) |
| Cc1ccccc1NC(=O)c1ccc(N/N=C/c2ccccc2O)c([N+](=O)[O-])c1 | 9.06 µM |
| O=C(Oc1c(CN2CCOCC2)cc(Cl)c2cccnc12)c1ccc(F)cc1 | inactive |
| Oc1ccc(CN2CCN(Cc3ccccc3)CC2)c2cccnc12 | inactive |
| O=C(Nc1ccc(-c2nc3ncccc3o2)cc1)c1ccc([N+](=O)[O-])o1 | 1.08 µM |
| CCCOc1ccc(N2C(=O)CC(N(O)c3ccccc3)C2=O)cc1 (configuration not stated) | 7.23 µM |
| N#C/C(=C\c1ccc([N+](=O)[O-])o1)C(=O)Nc1ccc(F)cc1 | 17.1 µM |
| Cc1ccc(NC(=O)c2ccc(N/N=C/c3cccc(O)c3)c([N+](=O)[O-])c2)cc1 | 8.03 µM |
| N#C/C(=C\c1ccc(OCc2ccccc2)cc1)C(=O)Nc1nc2c(s1)CCN(Cc1ccccc1)C2 | inactive |
| COc1cc(/C=C2\CC(C(C)(C)C)C/C(=C\c3cc(OC)c(OC)c(OC)c3)C2=O)cc(OC)c1OC (configuration not stated) | 6.19 µM |
| C/C(=N\NC(=O)c1cc(Br)ccc1O)c1ccccn1 | 6.67 µM |
| Cc1c(C#N)c(NC(=O)CCl)n(Cc2ccc(F)cc2)c1C | 16 µM |
| C/C(=N\Nc1ncnc2sc(C)c(C)c12)c1ccccn1 | 5.59 µM |
